Assay results as given in patent publication US9271493B2, “Methods for microbial biofilm destruction” (priority 2012, dated 2016).
Read-outs that look alike come from different tables or passages of the source.

Experiments:
curli [1] = target: T1, curli (Escherichia coli, UniProt P28307); conditions: cited from earlier work
UTI89 [2] = test: pellicle formation (biofilm at the air-liquid interface); assay type: cell-based, uropathogenic E. coli; conditions: for concentration preventing formation of a biofilm at the air-liquid interface: UTI89, complete inhibition; for pellicle formation / biofilm formation at the air-liquid interface: UTI89
Protocol: (§1) Biofilm assays. Colony biofilm formation was initiated by spotting 10 μl of overnight bacterial culture onto a YESCA agar plate (Kolodkin-Gal et al. (2010) Science 328:627-629). Colony morphology was observed after designated growth times at 26° C. Biofilm in YESCA broth attached to plastic (polyvinyl chloride, PVC) was determined using the Kolter crystal violet assay as described by O'Toole et al. (1998) Mol. Microbiol. 28:449-461. Briefly, bacterial cells were grown in 96-well PVC plates; unattached cells were washed away; and cells remaining associated with the PVC wells were stained with 0.1% crystal violet. The extent of biofilm formation was quantified by measuring the absorbance of crystal violet at OD595 after dissolving the PVC-associated biomass in 95% ethanol. The percent biofilm represents the increase in biofilm formation in the presence of various concentrations of DMSO and ethanol relative to biofilm formation when no compound was present. The mean of triplicate individual experiments was used and error bars represent the standard deviation. Pellicle formation was initiated by inoculating 4 μL of an overnight bacterial culture grown in YESCA broth in 4 mL YESCA in 12-well-plate wells and incubated at 26° C. Pellicle formation was inspected visually and assessed by perturbation with a pipet tip after 72 hours of growth.

UTI89 [3] = test: biofilm attached to PVC plastic, 96-well crystal violet assay; assay type: cell-based, uropathogenic E. coli
Protocol: as §1

E. coli strain MC4100 = test: fibronectin-binding assay (adhesion to fibronectin-coated plates); assay type: cell-based; conditions: MC4100 grown under curli-producing conditions on agar in the presence of compound; dose-dependent
Text: We employed a commonly used fibronectin-binding assay to determine whether curcumin blocks adhesion of E. coli strain MC4100 to fibronectin-coated plates. MC4100 is the E. coli strain in which curli biogenesis was first described. […] UTI89, on the other hand, is a prototypical biofilm-competent strain that forms biofilms on agar, on plastic, and at an air-liquid interface when expressing curli and cellulose. Since curli are sufficient to mediate binding to fibronectin, the use of MC4100 readily allows one to determine whether a compound or external stimulus can influence curli-dependent adhesion.
(§2) Growth conditions. UTI89, UTI89ΔcsgA, MC4100, and MC4100Δcsg were grown on YESCA (0.5 g/L yeast extract; 10 g/L Casamino acids) agar supplemented with additional compounds as indicated.

[4] = test system: curli proteins, CsgA and CsgG; test: Western blot analysis of cell-associated curli proteins; assay type: cell-based, E. coli
Protocol: Western blot analysis. The cell-associated curli proteins, CsgA and CsgG, were examined by immunoblot assays as described (41). Briefly, whole-cell samples with equivalent cell number were prepared as cell pellets of 1 mL cell culture with an OD600 of 1.0. Each pellet was treated with 100 μL hexafluoroisopropanol (HFIP) to dissociate curli subunits (41). HFIP was removed by vacuum centrifugation, and samples were resuspended in SDS-PAGE loading buffer. Protein gel electrophoresis was carried out using 12% SDS-PAGE gels (Invitrogen) and blotted onto […] nitrocellulose transfer membranes (Whatman). The polyclonal rabbit antiserum to CsgA or CsgG was used as the primary antibody and horseradish peroxidase (HRP) conjugated goat anti-rabbit antibody (Pierce) was used as the secondary antibody (55).

UTI89 [5] = test: colony biofilm formation on YESCA agar; assay type: cell-based, uropathogenic E. coli; conditions: for biofilm formation on agar (colony morphology): UTI89 on YESCA agar
Protocol: as §2, §1

E. coli = test: biofilm formation attached to Teflon (1 mL Teflon beakers, crystal violet); assay type: cell-based; conditions: 48 hours at 26° C. in YESCA broth
Protocol: FIG. 4. Curcumin and dim ethyl curcumin reduce E. coli biofilm formation attached to Teflon using 1 mL Teflon beakers. After bacterial incubation for 48 hours at 26° C. in YESCA nutrient broth in the presence or absence of compounds, planktonic and loosely associated bacteria were washed from the beakers and adherent bacteria were stained with crystal violet, dissolved in ethanol and quantified by spectrophotometry.
Teflon is often used as a material in various industrial and biomedical applications, including the production of catheters. Teflon is often employed due to its general anti-adherent properties. Yet, even E. coli can adhere to Teflon and forms biofilms on Teflon surfaces. Thus, we also examined the ability of curcumin and DMC to prevent biofilm formation attached to Teflon using small 1-mL Teflon beakers.

curli [6] = target: T1, curli; conditions: McCrate, Zhou, and Cegelski 2013; cited from earlier work
amyloid β = amyloid β (Homo sapiens, UniProt P05067); conditions: oligomer form and fibril form; Yang et al. 2005; cited from earlier work
Chain of amyloid β (P05067 672-713 limits assumed): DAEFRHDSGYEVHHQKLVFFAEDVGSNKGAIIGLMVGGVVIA

[7] = target: Alzheimer's β-amyloid fibrils (Homo sapiens, UniProt P05067); conditions: Ono et al. 2004; cited from earlier work
Chain of Alzheimer's β-amyloid fibrils (P05067 672-713 limits assumed): as above

T1 sequence (P28307 21-151): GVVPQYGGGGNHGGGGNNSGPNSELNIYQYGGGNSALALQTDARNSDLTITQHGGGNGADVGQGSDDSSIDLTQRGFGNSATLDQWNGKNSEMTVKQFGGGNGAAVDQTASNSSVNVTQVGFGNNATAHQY

Compound: LL-37
- curli formation (curli [1]): inhibits curli formation

Compound: COc1ccc(/C=C/C(=O)CC(=O)/C=C/c2ccc(OC)c(OC)c2)cc1OC [DMC, dimethoxycurcumin]
- concentration preventing formation of a biofilm at the air-liquid interface (UTI89 [2]): 10 µM
- concentration blocking biofilm formation attached to plastic (PVC) (UTI89 [3]): 10 µM

Compound: COc1cc(/C=C/C(=O)CC(=O)/C=C/c2ccc(O)c(OC)c2)ccc1O [curcumin]
- adhesion to the protein fibronectin (E. coli strain MC4100): reduced adhesion
- production of curli proteins ([4]; MC4100, Western blot): did not influence
- curli production ([4]; UTI89, Western blot): not affected
- biofilm inhibition on agar after 5 days (UTI89 [5]; UTI89, 5 days of bacterial growth): diminished after 5 days
- biofilm formation on agar (colony morphology) (UTI89 [5]): lost the hallmark rough and wrinkled phenotype
- pellicle formation / biofilm formation at the air-liquid interface (UTI89 [2]): completely prevent pellicle formation
- concentration preventing formation of a biofilm at the air-liquid interface (UTI89 [2]): 25 µM
- concentration blocking biofilm formation attached to plastic (PVC) (UTI89 [3]): 25 µM
- concentration blocking biofilm formation attached to plastic (PVC) (UTI89 [3]; listed as curumin): 10 µM
- biofilm formation attached to Teflon (E. coli): effective at significantly preventing biofilm formation
- binding to curli (curli [6]): binding to curli
- binding to amyloid β (amyloid β): bind
- amyloid fibril formation in vitro [7]: prevent amyloid fibril formation

Compound: Nc1c(/N=N/c2ccc(-c3ccc(/N=N/c4cc(S(=O)(=O)O)c5ccccc5c4N)cc3)cc2)cc(S(=O)(=O)O)c2ccccc12 [Congo red]
- biofilm formation on agar (colony morphology) (UTI89 [5]): does not block biofilm formation
- pellicle formation / biofilm formation at the air-liquid interface (UTI89 [2]): not
